Like-named read-outs stand apart in the source and are kept apart here.
How the values were obtained:
HMLE-Snail cell line = assay: Formation of HMLE-Snail cell line spheroids; format: cell-based; conditions: read-out: Colony (%): cell colony number of drug-treated group/cell colony number of control group × 100%
Procedure: HMLE-Snail cell line is one of most classic cell models for studying tumor cell metastasis and EMT path. HMLE-Snail cell line highly expresses Snail protein, and thus one of most remarkable features thereof is that it has spherical cellular morphology (spheroid). […] The HMLE-Snail cell line used in the present invention was donated by Dr. Robert Weinberg from America Massachusetts Whitehead Institute. HMLE-Snail cells were suspended in a liquid culture medium (in which B-27 and N-2 were added, purchased from America Invitrogen Corporation) containing DMEM/F12 in a ratio of 1:1, in an amount of 1.0×10^3 cells/ml, and cultured in an ultra low attachment culture plate so as to allow spheroids to be formed. Seven days later, spheroids were collected by centrifugation, and counted. […] Docetaxel is a common clinical chemotherapy drug.

NCI-H1975 = assay: cells; format: cell-based; conditions: Homo sapiens
Procedure: (§1) NCI-H1975 and NCI-H1650 are two typical high metastasis type lung cancer cell lines. The therapeutic effect of the representative compound for the metastasis type lung cancers can be preliminarily assessed by detecting the inhibitory activity of the representative compound for the two cell lines. The lung cancer cell line was inoculated on 96-well cell culture plate in an amount of 6000 cells per well and cultured at 37° C. for 24 hours, and then treated solely with the compound added therein and cultured. Seventy-two hours later, MTT or CCK-8 method was used to detect the inhibitory activity of the compound for the two lung cancer cell lines.

NCI-H1650 = assay: cells; format: cell-based; conditions: Homo sapiens
Procedure: as §1

Jeko-1 = assay: Inhibitory activity for high metastasis type lymphoma cell line (MTT or CCK-8); format: cell-based; conditions: Homo sapiens
Procedure: (§2) Jeko-1, Raji and U2932 are three typical high metastasis type lymphoma cell lines. The lymphoma cell line was inoculated on 96-well cell culture plate in an amount of 6000 cells per well and cultured at 37° C. for 24 hours, and then treated solely with the compound added therein and cultured. Seventy-two hours later, MTT or CCK-8 method was used to detect the inhibitory activity of the compound for the two high metastasis type lymphoma cell lines.

Raji = assay: as above; format: cell-based; conditions: Homo sapiens
Procedure: as §2

U2932 = assay: as above; format: cell-based; conditions: Homo sapiens
Procedure: as §2

IL-6 = assay: Serum IL-6 level of IBD animal model (ELISA); format: in vivo, SD rats; conditions: 80 mg/kg, three days after making the TNBS model
Description: (§3) Inflammatory bowel disease is an autoimmune disease. […] The therapeutic effect of the representative compound for the immune system disease or inflammation can be assessed by detecting change in levels of some important cytokines such as TNF-α and IL-6 at downstream of the signal path.

HCT116 = assay: Inhibitory activity for high metastasis type colon cancer cell line (MTT or CCK-8); format: cell-based; conditions: Homo sapiens
Procedure: (§4) SW620 and HCT116 are two typical high metastasis type colon cancer cell lines. The colon cancer cell line was inoculated on 96-well cell culture plate in an amount of 6000 cells per well and cultured at 37° C. for 24 hours, and then treated solely with the compound added therein and cultured. Seventy-two hours later, MTT or CCK-8 method was used to detect the inhibitory activity of the compound for the two high metastasis type colon cancer cell lines.

SW620 = assay: as above; format: cell-based; conditions: Homo sapiens
Procedure: as §4

XPO1 protein = biological target: T1, XPO1 protein (Homo sapiens, UniProt O14980); assay: Inhibitory activity for XPO1 protein (NES-GFP nuclear export, laser confocal microscope); format: cell-based; conditions: NES-GFP nuclear export, cells treated for 2 hours
T1 construct: Sixteen hours later, NES-GFP plasmid was transfected with liposome; endogenous in cells
Description: NES (nuclear export signal) is a nuclear export signal peptide recognized by XPO1 protein. XPO1 recognizes NES sequence peptide segment of biomacromolecule and exports the biomacromolecule out of nucleus. NES-GFP protein is obtained by co-expressing green fluorescence protein GFP and NES sequence peptide segment by using a eukaryotic expression plasmid. Inhibitory activity of the representative compound for XPO1 protein can be assessed by detecting influence of the compound on NES-GFP cell localization.
The cells were digested with trypsin, counted, and inoculated on 96-well plate in an amount of 1.5×10^4 cells per well. Sixteen hours later, NES-GFP plasmid was transfected with liposome.

[1] = system: SK-OV3 (high metastasis type ovarian cancer cell line); assay: Ovarian cancer intraperitoneal metastasis animal model; format: in vivo, nudemice (BALB/c-nu/nu); conditions: Mus musculus, SK-OV-3, ip; for response vs control in vivo at 80 mg/kg: 504 h, read-out: T/C (%); for mortality at 80 mg/kg: 720 h, six mice per group, read-out: Mortality (within 30 days) (converted)
Procedure: The ovarian cancer intraperitoneal metastasis animal model is one of most classic animal models for studying anti-ovarian cancer metastasis drug. Sixty 5 to 6-week-old female nudemice with similar weight (BALB/c-nu/nu) were chosen. SK-OV3 (high metastasis type ovarian cancer cell line) stably expressing green fluorescence protein was screened, and prepared into a cell suspension of 2×10^6 cells/100 μl with serum-free PRMI1640 medium. […] Three weeks later, the cancer was detected with a small animal in vivo imaging apparatus (Xenogen, School of Medicine, Shanghai Jiaotong University) and photos thereof were taken. […] In the table, T represents the drug-treated group, and C represents the blank control group. T/C is (V/V0 of compound-treated group)/(V/V0 of blank control group) in which V represents the cancer volume of mouse on the day the detection was performed, and V0 represents the cancer volume of mouse on the day the administration begun.

TNF-α = assay: Serum TNF-α level of IBD animal model (ELISA); format: in vivo, SD rats; conditions: 80 mg/kg, three days after making the TNBS model
Description: as §3

IBD animal model = assay: Macroscopic pathological changes of IBD animal model (enteroclysis with TNBS); format: in vivo, SD rats; conditions: 80 mg/kg intragastrically daily, TNBS rats, score 0-5, 10 animals
Procedure: Eight-week-old male SD rats (10 rats per group) were fasted for 24 hours and anaesthetized with diethyl ether. 50% ethanol and TNBS (2,4,6-trinitrobenzenesulfonic acid) were mixed to prepare a solution. In the IBD model group, a tube made of vinyl resin was inserted 5 cm from anus, and enteroclysis was performed with the TNBS solution in a dose of 100 mg/kg. The rats were hung upside down 30 seconds later after the enteroclysis to ensure no leakage of the TNBS solution. In the control group, the TNBS solution was replaced with normal saline with which enteroclysis was performed. Seven days later after the enteroclysis with the TNBS solution or normal saline, animals were sacrificed and dissected. […] Two weeks later after treated with the drugs, the animals were sacrificed and dissected, and large intestine thereof was taken out and fixed in 4% formalin solution for 30 minutes. The large intestine of the animals was cut lengthwise from the mesentery side to take photos for rectum portion and measure the weight of rectum. Based on the macroscopic observation and judgment score (Table 2-1), ulceration and bleeding states of rectum portion were scored according to the macroscopic observation scoring standard.

[2] = 10 μg/ml, treated for 24 hours, control = 100
[3] = NCI-H1975, 72 hours, read-out: IC50
[4] = NCI-H1650, 72 hours, read-out: IC50
[5] = Jeko-1, 72 hours, read-out: IC50
[6] = U2932, 72 hours, read-out: IC50
[7] = HCT-116, HCT116, 72 hours, read-out: IC50
[8] = SW-620, SW620, 72 hours, read-out: IC50
[9] = 80 mg/kg intraperitoneal injection once a day for 3 weeks

T1 sequence (O14980 whole entry, species assumed): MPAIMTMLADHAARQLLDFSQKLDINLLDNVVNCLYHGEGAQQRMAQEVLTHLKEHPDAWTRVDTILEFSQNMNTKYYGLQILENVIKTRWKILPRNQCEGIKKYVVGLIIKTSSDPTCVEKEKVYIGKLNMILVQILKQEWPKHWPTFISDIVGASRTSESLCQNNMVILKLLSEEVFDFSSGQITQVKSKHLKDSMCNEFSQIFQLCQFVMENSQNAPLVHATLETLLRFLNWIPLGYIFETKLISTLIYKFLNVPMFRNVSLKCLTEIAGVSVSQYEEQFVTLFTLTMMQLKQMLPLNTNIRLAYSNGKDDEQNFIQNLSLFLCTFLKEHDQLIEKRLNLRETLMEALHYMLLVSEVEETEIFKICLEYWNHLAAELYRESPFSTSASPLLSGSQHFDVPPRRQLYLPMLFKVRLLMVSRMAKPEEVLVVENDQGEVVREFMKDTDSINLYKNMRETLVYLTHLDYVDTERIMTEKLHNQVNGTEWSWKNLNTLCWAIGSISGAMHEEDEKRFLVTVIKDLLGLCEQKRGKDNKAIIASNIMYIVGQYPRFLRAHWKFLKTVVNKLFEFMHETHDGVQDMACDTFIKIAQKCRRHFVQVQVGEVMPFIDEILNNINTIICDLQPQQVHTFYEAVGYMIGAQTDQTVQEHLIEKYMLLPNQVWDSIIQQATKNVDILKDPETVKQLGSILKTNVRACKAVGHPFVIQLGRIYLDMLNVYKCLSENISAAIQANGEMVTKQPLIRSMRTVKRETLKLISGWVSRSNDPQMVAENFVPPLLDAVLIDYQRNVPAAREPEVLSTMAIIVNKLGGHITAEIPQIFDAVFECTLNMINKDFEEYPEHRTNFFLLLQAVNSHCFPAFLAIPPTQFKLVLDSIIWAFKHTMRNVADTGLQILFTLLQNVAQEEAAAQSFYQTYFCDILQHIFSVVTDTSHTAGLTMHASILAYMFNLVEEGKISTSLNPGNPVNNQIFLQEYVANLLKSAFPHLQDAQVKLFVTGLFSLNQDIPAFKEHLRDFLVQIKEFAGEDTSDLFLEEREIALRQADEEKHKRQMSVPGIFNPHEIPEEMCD

Row | Compound | activity at 10 µg/mL (HMLE-Snail cell line; [2]) [%] | IC50 (NCI-H1975; [3]) [nM] | IC50 (NCI-H1650; [4]) [nM] | IC50 (Jeko-1; [5]) [nM] | IC50 (Raji; 72 hours, read-out: IC50) [nM] | IC50 (U2932; [6]) [nM] | Serum IL-6 level, Animal-1 (IL-6) [ng/mL] | Serum IL-6 level, Animal-2 (IL-6) [ng/mL] | Serum IL-6 level, Animal-3 (IL-6) [ng/mL] | IC50 (HCT116; [7]) [nM] | IC50 (SW620; [8]) [nM] | Activity (μM): inhibitory activity for XPO1 protein (full inhibitory concentration) (XPO1 protein) [µM] | response vs control in vivo at 80 mg/kg [1, 9] [%] | mortality at 80 mg/kg [1] [%] | Serum TNF-α level, Animal-1 (TNF-α) [ng/mL] | Serum TNF-α level, Animal-2 (TNF-α) [ng/mL] | Serum TNF-α level, Animal-3 (TNF-α) [ng/mL] | Macroscopic pathological score (IBD animal model) | also measured
1 | CCC[S+]([O-])/C=C/CCN=C=S (centres unmarked) [Compound F-01, reference compound] | 60 to 65 | 6900 | 5400 | 3500 | 3700 | 5200 | 1.8 | 1.9 | 2.0 | 3500 | 4100 | 10 to 15 | 37 | 0 | 2.0 | 1.7 | 1.9 | – | –
2 | [O-][S+](/C=C/CCN=C=S)C1CC1 (centres unmarked) [Compound F-03, reference compound] | 55 to 60 | 5800 | 4900 | 3100 | 3200 | 4900 | 1.7 | 1.8 | 1.8 | 2900 | 3300 | 5 to 10 | 35 | 0 | 1.7 | 1.6 | 1.5 | 2.5 ± 0.6 | –
3 | [O-][S+](/C=C/CCN=C=S)c1cc(C(F)(F)F)cc(C(F)(F)F)c1 (centres unmarked) [Compound I-04] | – | – | – | – | – | – | – | – | – | – | – | 0.250 | – | 0 | – | – | – | 1.0 ± 0.5 | activity at 10 µg/mL (HMLE-Snail cell line; 24 h): 10 to 15%; IC50 (NCI-H1975; NCI-H1975, 72 h): 90 nM; IC50 (NCI-H1650; NCI-H1650, 72 h): 80 nM; IC50 (Jeko-1; JeKo-1, 72 h): 50 nM; IC50 (Raji; 72 h): 60 nM; IC50 (U2932; U2932, 72 h): 90 nM; IC50 (HCT116; HCT-116, 72 h): 70 nM; IC50 (SW620; SW-620, 72 h): 90 nM; response vs control in vivo at 80 mg/kg [1]: 19%
4 | COc1cc([S+]([O-])/C=C/CCN=C=S)cc(OC)c1OC (centres unmarked) [Compound I-06] | 10 to 15 | – | – | 70 | 100 | 170 | 0.7 | 0.5 | 0.3 | 100 | 150 | 0.200 | – | – | 0.9 | 0.6 | 0.5 | 1.0 ± 0.1 | –
5 | N#Cc1cc([S+]([O-])/C=C/CCN=C=S)cc(C(F)(F)F)c1 (centres unmarked) [Compound I-08] | 15 to 20 | 170 | 200 | – | – | – | 0.8 | 0.7 | 0.8 | – | – | 0.5 to 1 | 23 | 0 | 1.0 | 1.2 | 1.1 | – | –
6 | COc1ccc(Sc2ccc([S+]([O-])/C=C/CCN=C=S)cc2)cc1 (centres unmarked) [Compound I-28] | 15 to 20 | – | – | – | – | – | – | – | – | 150 | 190 | 0.5 to 1 | – | – | – | – | – | – | –

— patent US10315990B2, “Isothiocyanate compounds and isothiocyanate XPO1 protein inhibitor drugs thereof” (DRIVINGFORCE THERAPEUTICS Co., Ltd., priority 2015, dated 2019)
